Results as given in patent publication US7786141B2 (Vertex Pharmaceuticals Incorporated, priority 2004, dated 2010).

Key:
M1 muscarinic receptor = molecular target: T1, M1 muscarinic receptor (Homo sapiens, UniProt P11229); assay: Functional mobilization of intracellular calcium (FLIPR) in M1-CHO cells; assay type: cell-based; conditions: for Emax: 100% efficacy is the maximum response obtained with the Carbachol control; for M1 Activity: M1 receptor, calcium mobilization (FLIPR); for EC50: CHO cells expressing M1, calcium mobilization
T1 construct: expressed in transfected cells; host or cells: CHO (M1-CHO)
T1 sequence (P11229 1-460): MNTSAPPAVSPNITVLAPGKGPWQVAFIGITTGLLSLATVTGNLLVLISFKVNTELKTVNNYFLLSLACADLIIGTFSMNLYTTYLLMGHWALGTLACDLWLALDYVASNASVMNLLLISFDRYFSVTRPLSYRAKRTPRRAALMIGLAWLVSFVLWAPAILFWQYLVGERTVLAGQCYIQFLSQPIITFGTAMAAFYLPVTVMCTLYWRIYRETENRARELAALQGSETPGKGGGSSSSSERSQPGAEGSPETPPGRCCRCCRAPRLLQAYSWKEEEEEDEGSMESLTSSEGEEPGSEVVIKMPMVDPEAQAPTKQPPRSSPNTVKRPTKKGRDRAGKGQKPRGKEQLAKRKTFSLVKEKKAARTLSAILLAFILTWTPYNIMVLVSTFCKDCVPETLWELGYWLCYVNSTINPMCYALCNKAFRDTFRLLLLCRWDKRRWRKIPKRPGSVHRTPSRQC
Summary of the method: (§1)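 Steps: seed M1- or M4-CHO cells 18-24 hrs ahead; load calcium dye with 1 mM probenecid; add test compound (0.5% DMSO final), either alone for agonism or 15 min before EC80 carbachol for inhibition; record FLIPR fluorescence for 60 sec.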

M4 muscarinic receptor = molecular target: T2, M4 muscarinic receptor (Homo sapiens, UniProt P08173); assay: Functional mobilization of intracellular calcium (FLIPR) in M4-CHO cells; assay type: cell-based; conditions: for Emax: 100% efficacy is the maximum response obtained with the Carbachol control; for M4 Activity: M4 receptor, calcium mobilization (FLIPR); for EC50: CHO cells expressing M4, calcium mobilization
T2 construct: expressed in transfected cells; host or cells: CHO (M4-CHO)
T2 sequence (P08173 1-479): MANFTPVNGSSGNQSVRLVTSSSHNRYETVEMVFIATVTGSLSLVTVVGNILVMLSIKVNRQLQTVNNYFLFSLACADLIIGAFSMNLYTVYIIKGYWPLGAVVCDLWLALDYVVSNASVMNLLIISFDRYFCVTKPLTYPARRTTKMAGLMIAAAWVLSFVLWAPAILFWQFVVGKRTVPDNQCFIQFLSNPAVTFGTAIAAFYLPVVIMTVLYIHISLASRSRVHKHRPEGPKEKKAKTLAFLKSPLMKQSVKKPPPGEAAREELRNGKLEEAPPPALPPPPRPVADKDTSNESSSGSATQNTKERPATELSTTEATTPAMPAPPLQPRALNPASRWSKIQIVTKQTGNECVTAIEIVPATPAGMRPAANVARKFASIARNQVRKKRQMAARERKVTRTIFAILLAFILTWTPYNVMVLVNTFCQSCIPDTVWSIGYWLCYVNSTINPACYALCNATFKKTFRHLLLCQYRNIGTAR
Summary of the method: as §1

| SMILES | Emax (M1 muscarinic receptor; Table 4) [%] | M1 Activity (M1 muscarinic receptor; Table 4) | Emax (M4 muscarinic receptor; Table 4) [%] | M4 Activity (M4 muscarinic receptor; Table 4) | Emax (M1 muscarinic receptor; Table 5) [%] | EC50 (M1 muscarinic receptor; Table 5) [µM] | Emax (M4 muscarinic receptor; Table 5) [%] | EC50 (M4 muscarinic receptor; Table 5) [µM] |
| --- | --- | --- | --- | --- | --- | --- | --- | --- |
| CC(=O)N1CC2(CCN(C[C@@H]3CCN(C(=O)OC(C)C)C3)CC2)c2ccccc21 [compound 996] | < 25 | x (activity was measured to be greater than 5.0 μM) | < 25 | x (activity was measured to be greater than 5.0 μM) | – | – | – | – |
| CN(C)C(=O)NC1CCC2(CCN(CC3CC4C=CC3C4)CC2)c2ccccc21 (centres unmarked) [compound 998] | < 25 | x (activity was measured to be greater than 5.0 μM) | 25 to 100 | xxx (activity was measured to be less than 2.0 μM) | – | – | – | – |
| CC(=O)NC1CCC2(CCN(CCC3CCN(C(=O)N(C)C)CC3)CC2)c2ccccc21 (centres unmarked) [compound 999] | 25 to 100 | xxx (activity was measured to be less than 2.0 μM) | < 25 | x (activity was measured to be greater than 5.0 μM) | – | – | – | – |
| CCC(C)C(=O)N1CCC(N2CCC3(CC2)CN(C(C)=O)c2ccccc23)CC1 (centres unmarked) [compound 1000] | 25 to 100 | x (activity was measured to be greater than 5.0 μM) | 25 to 100 | x (activity was measured to be greater than 5.0 μM) | – | – | – | – |
| COc1cc2c(cc1OC)C1(CCN([C@H]3CC4CC[C@@H]3C4)CC1)C[C@@H]2NC(C)=O [compound 1002] | < 25 | x (activity was measured to be greater than 5.0 μM) | < 25 | x (activity was measured to be greater than 5.0 μM) | – | – | – | – |
| CCOC(=O)N1CCC(CN2CCCC3(CC2)CN(C(C)=O)c2ccc(F)cc23)CC1 (centres unmarked) [compound 1003] | 25 to 100 | xxx (activity was measured to be less than 2.0 μM) | 25 to 100 | xxx (activity was measured to be less than 2.0 μM) | – | – | – | – |
| CCOC(=O)N1CCC(N2CCC3(CC2)CN(C(=O)[C@@H](O)CC)c2ccc(F)cc23)CC1 [compound 1004] | 25 to 100 | xxx (activity was measured to be less than 2.0 μM) | 25 to 100 | xxx (activity was measured to be less than 2.0 μM) | – | – | – | – |
| CN(C)C(=O)N[C@H]1CC2(CCN([C@@H]3CC4CC[C@@H]3C4)CC2)c2ccccc21 [compound 1005] | < 25 | x (activity was measured to be greater than 5.0 μM) | 25 to 100 | xxx (activity was measured to be less than 2.0 μM) | – | – | – | – |
| CN(C)C(=O)N1CC2(CCN(C3CCN(C(=O)[C@@H]4CCCO4)CC3)CC2)c2cc(F)ccc21 [compound 1006] | 25 to 100 | x (activity was measured to be greater than 5.0 μM) | < 25 | x (activity was measured to be greater than 5.0 μM) | – | – | – | – |
| CC(=O)CN1CC2(CCN(C3CCCCCC3)CC2)c2cc(F)ccc21 [compound 1009] | 25 to 100 | xxx (activity was measured to be less than 2.0 μM) | 25 to 100 | xxx (activity was measured to be less than 2.0 μM) | – | – | – | – |
| CN(C)C(=O)NC1CCC2(CCN(CCC3CC4CCC3C4)CC2)c2ccccc21 (centres unmarked) [compound 1010] | < 25 | x (activity was measured to be greater than 5.0 μM) | < 25 | x (activity was measured to be greater than 5.0 μM) | – | – | – | – |
| COCCOC(=O)N1CCC(N2CCC3(CC2)CN(C(C)=O)c2ccc(F)cc23)C1 (centres unmarked) [compound 1012] | < 25 | x (activity was measured to be greater than 5.0 μM) | < 25 | x (activity was measured to be greater than 5.0 μM) | – | – | – | – |
| C#CCCOC(=O)N1CC[C@@H](CN2CCC3(CC2)CN(C(C)=O)c2ccccc23)C1 [compound 1013] | < 25 | x (activity was measured to be greater than 5.0 μM) | < 25 | x (activity was measured to be greater than 5.0 μM) | – | – | – | – |
| CCOC(=O)N1C2CCC1CC(N1CCC3(CC[C@H](N4CCCC4=O)c4ccccc43)CC1)C2 (some centres unmarked) [compound 1014] | 25 to 100 | xxx (activity was measured to be less than 2.0 μM) | 25 to 100 | xxx (activity was measured to be less than 2.0 μM) | – | – | – | – |
| CC(=O)N1CC2(CCN(C[C@@H]3CCN(C(=O)OCC(F)F)C3)CC2)c2ccccc21 [compound 1015] | 25 to 100 | xx (activity was measured to be between 2.0 μM and 5.0 μM) | < 25 | xxx (activity was measured to be less than 2.0 μM) | – | – | – | – |
| CCCC(=O)N[C@H]1CC2(CCN(C[C@@H]3C[C@H]4C=CC3C4)CC2)c2ccccc21 [compound 1016] | 25 to 100 | xxx (activity was measured to be less than 2.0 μM) | 25 to 100 | xxx (activity was measured to be less than 2.0 μM) | – | – | – | – |

| SMILES | Emax (M1 muscarinic receptor; Table 4) [%] | M1 Activity (M1 muscarinic receptor; Table 4) | Emax (M4 muscarinic receptor; Table 4) [%] | M4 Activity (M4 muscarinic receptor; Table 4) | Emax (M1 muscarinic receptor; Table 5) [%] | EC50 (M1 muscarinic receptor; Table 5) [µM] | Emax (M4 muscarinic receptor; Table 5) [%] | EC50 (M4 muscarinic receptor; Table 5) [µM] |
| --- | --- | --- | --- | --- | --- | --- | --- | --- |
| CCCC(=O)N[C@H]1CC2(CCN([C@@H]3CC4CC[C@@H]3C4)CC2)c2ccccc21 [compound 1017] | 25 to 100 | x (activity was measured to be greater than 5.0 μM) | 25 to 100 | xxx (activity was measured to be less than 2.0 μM) | – | – | – | – |
| CC(=O)N1CC2(CCN(C3CCN(c4nccs4)CC3)CC2)c2cc(F)ccc21 [compound 1019] | – | – | – | – | 25 to 100 | < 2 | 25 to 100 | < 2 |
| CC(=O)N1CC2(CCN(C3CCC4(CC3)CC(C)=NO4)CC2)c2cc(F)ccc21 (centres unmarked) [compound 1020] | – | – | – | – | 25 to 100 | 2 to 10 | < 25 | 2 to 10 |
| CN(C)C(=O)N1CC2(CCN(C3CCN(c4ccccc4F)CC3)CC2)c2cc(F)ccc21 [compound 1024] | – | – | – | – | 25 to 100 | 2 to 10 | < 25 | 2 to 10 |
| CN(C)C(=O)N1CC2(CCN(C3CCN(c4cccc(F)c4)CC3)CC2)c2cc(F)ccc21 [compound 1025] | – | – | – | – | 25 to 100 | 2 to 10 | 25 to 100 | < 2 |
| CN(C)C(=O)N1CC2(CCN(C3CCN(c4ccc(F)cc4)CC3)CC2)c2cc(F)ccc21 [compound 1026] | – | – | – | – | 25 to 100 | 2 to 10 | < 25 | < 2 |
| COc1ccccc1N1CCC(N2CCC3(CC2)CN(C(=O)N(C)C)c2ccc(F)cc23)CC1 [compound 1027] | – | – | – | – | 25 to 100 | 2 to 10 | 25 to 100 | 2 to 10 |
| COc1cccc(N2CCC(N3CCC4(CC3)CN(C(=O)N(C)C)c3ccc(F)cc34)CC2)c1 [compound 1028] | – | – | – | – | 25 to 100 | 2 to 10 | 25 to 100 | < 2 |
| COc1ccc(N2CCC(N3CCC4(CC3)CN(C(=O)N(C)C)c3ccc(F)cc34)CC2)cc1 [compound 1029] | – | – | – | – | 25 to 100 | 2 to 10 | 25 to 100 | 2 to 10 |
| COc1ccc(F)cc1N1CCC(N2CCC3(CC2)CN(C(=O)N(C)C)c2ccc(F)cc23)CC1 [compound 1030] | – | – | – | – | 25 to 100 | 2 to 10 | 25 to 100 | 2 to 10 |
| CN(C)C(=O)N1CC2(CCN(C3CCN(c4cnccn4)CC3)CC2)c2cc(F)ccc21 [compound 1031] | – | – | – | – | 25 to 100 | < 2 | 25 to 100 | < 2 |
| CN(C)C(=O)N1CC2(CCN(C3CCN(c4ncccn4)CC3)CC2)c2cc(F)ccc21 [compound 1032] | – | – | – | – | 25 to 100 | 2 to 10 | 25 to 100 | < 2 |
| CN(C)C(=O)N1CC2(CCN(C3CCN(c4cncnc4)CC3)CC2)c2cc(F)ccc21 [compound 1033] | – | – | – | – | 25 to 100 | 2 to 10 | 25 to 100 | < 2 |
| CN(C)C(=O)N1CC2(CCN(C3CCN(c4nccs4)CC3)CC2)c2cc(F)ccc21 [compound 1034] | – | – | – | – | 25 to 100 | < 2 | 25 to 100 | < 2 |
| CN(C)C(=O)N1CC2(CCN(C[C@H]3CCN(c4cnccn4)C3)CC2)c2cc(F)ccc21 [compound 1035] | – | – | – | – | > 100 | < 2 | 25 to 100 | < 2 |
| CN(C)C(=O)N1CC2(CCN(C[C@@H]3CCN(c4cnccn4)C3)CC2)c2cc(F)ccc21 [compound 1036] | – | – | – | – | 25 to 100 | < 2 | 25 to 100 | < 2 |
